Patent US5192799A, “Coumaran group containing amine compounds and their acid addition salts and quaternary ammonium salts and the use thereof as anti arrhythmic agents and as psychotropic agents” (Mitsui Petrochemical Industries, Ltd., priority 1987, dated 1993)
Read-outs that look alike come from different tables or passages of the source.

What was measured:
[1] = tested on: Purkinje fiber; test: Effect on APD (APD75, field-stimulated right ventricular free wall); format: cell-based, adult mongrel dog; conditions: for activation at 10 µg/mL / activation at 1 µg/mL / activation at 3 µg/mL: Canis lupus familiaris, purkinje, 20 min, read-out: APD75 % (percent change in APD75)
Description: The pharmacological effects of the compounds of this invention represented by general formula (1) were studied. By using the heart of an adult mongrel dog, the activity of the compounds of general formula (1) were tested in vitro and in vivo. The heart of an anaethetized dog was extracted and suspended in a chamber at 37° C. in Tyrode's solution. The drug was added to Tyrode's solution being perfused through the heart specimen, and electrophysiological effects of the drug on cardiac action potential duration (APD) and maximum rate of depolarization were studied. An anaethetized dog was cut open at the chest.
An adult mongrel dog was anaethetized with intravenous administration of pentobarbital, 30 mg/kg. The heart was quickly removed, and the right ventricular free wall was dissected in the Tyrode's solution. The right ventricular free wall was fixed within an incubator at 37° C., and field stimulation at 1 Hz was carried out. Intracellular potentials were measured by piercing glass microelectrodes (10-20 megaohms) into the Purkinje fiber and the wave form of cardiac action potential drawn on an oscilloBraun tube via an amplifier was analyzed by a computer. Value of APD was obtained at 75% of full repolarization (APD75). The drug was added to Tyrode's solution (20 ml) perfused through the specimen. The effect of the drug was expressed by a percent change in APD75 after incubation for 20 minutes with the control value of APD before application of the drug being taken as 100%.

[2] = tested on: right ventricle (effective refractory period); test: Activity on ERP of the right ventricle; format: in vivo, adult mongrel dog; conditions: Canis lupus familiaris, iv, read-out: ERP % (ERP prolonging activity)
Description: The pharmacological effects of the compounds of this invention represented by general formula (1) were studied. By using the heart of an adult mongrel dog, the activity of the compounds of general formula (1) were tested in vitro and in vivo. The heart of an anaethetized dog was extracted and suspended in a chamber at 37° C. in Tyrode's solution. The drug was added to Tyrode's solution being perfused through the heart specimen, and electrophysiological effects of the drug on cardiac action potential duration (APD) and maximum rate of depolarization were studied. An anaethetized dog was cut open at the chest. […] In an anaethetized and open-chested adult mongrel dug, a silver-silver chloride electrode was sutured to the right ventricle, and ventricular pacing was performed at a stimulation interval of 400 msec for a duration time of 4 msec, twice diastolic threshold. Then, a small amount of alcohol was injected through the sinus artery to extinguish the pacemaker activity, and under ventricular pacing, ERP was measured. Ten stimulations were taken as one train, and the interval between trains when the response to the first stimulation disappeared was defined as ERP. […] ERP before drug administration (intravenously or intraduodenally) was taken as 100%, and ERP prolonging activity of the drugs was expressed by %.

[3] = in vivo; conditions: mouse, in vivo, po, LD50 p.o., p.o., 24 hours after administration, male ddY mice
Description: By using male ddY-strain 5-week old mice (3 to 4 per group), the compounds of general formula (1) were each administered orally or intraperitoneally as a solution in saline or as a suspension in methyl cellulose, and 24 hours after the administration, the toxicity of the compounds was evaluated.

[4] = dose 10 μg/ml, 20 minutes incubation, 37° C., 1 Hz, control before drug = 100%
[5] = 0.1 mg/kg i.v., ERP before drug = 100%
[6] = 0.3 mg/kg i.v., ERP before drug = 100%
[7] = 1 mg/kg i.v., ERP before drug = 100%
[8] = dose 1 μg/ml, 20 minutes incubation, 37° C., 1 Hz, control before drug = 100%
[9] = dose 3 μg/ml, 20 minutes incubation, 37° C., 1 Hz, control before drug = 100%
[10] = 3 mg/kg i.v., ERP before drug = 100%

CCCCCCC[N+](CC)(CC)CCCCc1ccc(Cl)cc1 [Clofilium, reference compound]
activation at 10 µg/mL [1, 4]: 15%
change in vivo at 0.1 mg/kg [2, 5]: 7 ± 1.3%
change in vivo at 0.3 mg/kg [2, 6]: 15.2 ± 2.4%
change in vivo at 1 mg/kg [2, 7]: 22.4 ± 1.6%

CC(C)N(CCCOc1ccc2c(c1)OCC2=O)C(C)C [Compound 116]
activation at 1 µg/mL [1, 8]: 14%
activation at 3 µg/mL [1, 9]: 38%
activation at 10 µg/mL [1, 4]: 44%
change in vivo at 0.1 mg/kg [2, 5]: 3%
change in vivo at 0.3 mg/kg [2, 6]: 7%
change in vivo at 1 mg/kg [2, 7]: 9%
change in vivo at 3 mg/kg [2, 10]: 9%
LD50 at 24 h [3]: > 300 mg/kg

CCCCN(CCCOc1ccc2c(c1)OCC2=O)CC(C)C [Compound 128]
activation at 1 µg/mL [1, 8]: 9%
activation at 3 µg/mL [1, 9]: 18%
LD50 at 24 h [3]: > 300 mg/kg

CC(C)CN(CCCOc1ccc2c(c1)OCC2=O)CC(C)C [Compound 132]
activation at 1 µg/mL [1, 8]: 7%
activation at 3 µg/mL [1, 9]: 18%
activation at 10 µg/mL [1, 4]: 21%
change in vivo at 0.1 mg/kg [2, 5]: 2.4 ± 2.4%
change in vivo at 0.3 mg/kg [2, 6]: 2.4 ± 2.4%
change in vivo at 1 mg/kg [2, 7]: 4.8 ± 4.8%
change in vivo at 3 mg/kg [2, 10]: 4.8 ± 4.8%
LD50 at 24 h [3]: > 300 mg/kg

C=CCN(CCCOc1ccc2c(c1)OCC2=O)C1CCCCC1 [Compound 160]
activation at 1 µg/mL [1, 8]: 0%
activation at 3 µg/mL [1, 9]: 7%
activation at 10 µg/mL [1, 4]: 11%
LD50 at 24 h [3]: > 300 mg/kg

CCN(CCCOc1ccc2c(c1)OCC2=O)CC1CCCO1 (centres unmarked) [Compound 184]
activation at 3 µg/mL [1, 9]: 16%
activation at 10 µg/mL [1, 4]: 31%
change in vivo at 0.1 mg/kg [2, 5]: 4.3 ± 2.2%
change in vivo at 0.3 mg/kg [2, 6]: 6.3 ± 3.4%
change in vivo at 1 mg/kg [2, 7]: 6.3 ± 3.4%
LD50 at 24 h [3]: ~300 mg/kg

CCN(CCCCCCO)CCCOc1ccc2c(c1)OCC2=O [Compound 188]
activation at 1 µg/mL [1, 8]: 17%
activation at 3 µg/mL [1, 9]: 19%
activation at 10 µg/mL [1, 4]: 19%
LD50 at 24 h [3]: > 300 mg/kg

CCCCCCCN(CC)CCOc1ccc2c(c1)OCC2=O [Compound 196]
activation at 1 µg/mL [1, 8]: 7%
activation at 3 µg/mL [1, 9]: 10%
activation at 10 µg/mL [1, 4]: 11%
change in vivo at 0.1 mg/kg [2, 5]: 5%
change in vivo at 0.3 mg/kg [2, 6]: 5%
change in vivo at 1 mg/kg [2, 7]: 18%
LD50 at 24 h [3]: ~300 mg/kg

CCCCCN(CC)CCCCOc1ccc2c(c1)OCC2=O [Compound 208]
activation at 1 µg/mL [1, 8]: 0%
activation at 3 µg/mL [1, 9]: 5%
activation at 10 µg/mL [1, 4]: 9%
LD50 at 24 h [3]: ~300 mg/kg

CCCCCCCN(CC)CCCCOc1ccc2c(c1)OCC2=O [Compound 212]
activation at 1 µg/mL [1, 8]: 4%
activation at 3 µg/mL [1, 9]: 8%
change in vivo at 0.1 mg/kg [2, 5]: 7.1 ± 3.4%
change in vivo at 0.3 mg/kg [2, 6]: 7.1 ± 3.4%
change in vivo at 1 mg/kg [2, 7]: 13.8 ± 3.6%
change in vivo at 3 mg/kg [2, 10]: 13.8 ± 3.6%
LD50 at 24 h [3]: 300 to 600 mg/kg

CCCCCCCN(CC)CC(O)COc1ccc2c(c1)OCC2=O.Cc1ccc(S(=O)(=O)O)cc1 (centres unmarked) [Compound 216, 6-[3-(N-ethyl-N-heptylamino)-2-hydroxypropyloxy]coumaran-3-one p-toluenesu lfonate]
activation at 1 µg/mL [1]: 13%
activation at 3 µg/mL [1]: 17%
change in vivo at 0.1 mg/kg [2]: 8%
change in vivo at 0.3 mg/kg [2]: 8%
change in vivo at 1 mg/kg [2]: 8%
change in vivo at 3 mg/kg [2]: 8%
LD50 at 24 h [3]: 300 to 600 mg/kg

CCCCCCCN(CC)CCCOc1ccc2c(c1OC)OCC2=O [Compound 244]
activation at 1 µg/mL [1, 8]: 6%
activation at 3 µg/mL [1, 9]: 9%
activation at 10 µg/mL [1, 4]: 11%
change in vivo at 0.1 mg/kg [2, 5]: 0%
change in vivo at 0.3 mg/kg [2, 6]: 9%
change in vivo at 1 mg/kg [2, 7]: 9%
change in vivo at 3 mg/kg [2, 10]: 17%
LD50 at 24 h [3]: ~300 mg/kg

CSC(=NC#N)N(C)CCCOc1ccc2c(c1)OCC2=O [Compound 271]
LD50 at 24 h [3]: > 300 mg/kg

COCCN(CCCOc1ccc2c(c1)OCC2=O)CCOC [Compound 276]
activation at 1 µg/mL [1, 8]: 5%
activation at 3 µg/mL [1, 9]: 12%
activation at 10 µg/mL [1, 4]: 23%
change in vivo at 0.1 mg/kg [2, 5]: 0%
change in vivo at 0.3 mg/kg [2, 6]: 0%
change in vivo at 1 mg/kg [2, 7]: 7%
change in vivo at 3 mg/kg [2, 10]: 7%

CCCN(CCCOc1ccc2c(c1)OCC2=O)CCC(=O)OCC [Compound 281]
LD50 at 24 h [3]: > 300 mg/kg

CCCCCCC[N+](CC)(CC)CC(O)COc1ccc2c(c1)OCC2=O (centres unmarked) [Compound 292]
activation at 1 µg/mL [1, 8]: 15%
activation at 3 µg/mL [1, 9]: 25%
activation at 10 µg/mL [1, 4]: 28%
change in vivo at 0.1 mg/kg [2, 5]: 8%
change in vivo at 0.3 mg/kg [2, 6]: 8%
change in vivo at 1 mg/kg [2, 7]: 8%

CCCCCCC[N+](CC)(CC)CCCOc1cccc2c1OCC2=O [Compound 295]
LD50 at 24 h [3]: > 300 mg/kg

CCCCCCC[N+](CC)(CC)CCCOc1cccc2ccc(=O)oc12 [Compound 632]
activation at 3 µg/mL [1, 9]: 44%
activation at 10 µg/mL [1, 4]: 18%
LD50 at 24 h [3]: > 300 mg/kg

O=C1COc2cc(OCCCN3CCCCC3)ccc21 [Compound 1110]
APD75 % (percent change in APD75) [1, 9]: 10%
APD75 % (percent change in APD75) [1, 4]: 20%
LD50 at 24 h [3]: > 300 mg/kg

CC[N+]1(CCCOc2ccc3c(c2)OCC3=O)CCCC(C)C1 (centres unmarked) [Compound 1119]
activation at 3 µg/mL [1, 9]: 4%

CCCC1CCCCN1CCCOc1ccc2c(c1)OCC2=O (centres unmarked) [Compound 1134]
activation at 1 µg/mL [1, 8]: 7%
activation at 3 µg/mL [1, 9]: 9%

O=C1COc2cc(OCCCN3CCCC4CCCCC43)ccc21 (centres unmarked) [Compound 1158]
activation at 3 µg/mL [1, 9]: 10%
activation at 10 µg/mL [1, 4]: 13%
LD50 at 24 h [3]: > 300 mg/kg

O=C1COc2cc(OCCCN3CCOCC3)ccc21 [Compound 1166]
activation at 1 µg/mL [1, 8]: 4%
activation at 3 µg/mL [1, 9]: 6%

CC[N+]1(CCCOc2ccc3c(c2)OCC3=O)CC(C)OC(C)C1 (centres unmarked) [Compound 1171]
activation at 1 µg/mL [1, 8]: 0%
activation at 3 µg/mL [1, 9]: 10%
LD50 at 24 h [3]: > 300 mg/kg

CC1CCN(CCCOc2ccc3c(c2)OCC3=O)CC(C)C1 (centres unmarked) [Compound 1194]
activation at 1 µg/mL [1, 8]: 16%
activation at 3 µg/mL [1, 9]: 19%
LD50 at 24 h [3]: > 300 mg/kg

O=C1COc2cc(OCCCN3CC4CCC(CC4)C3)ccc21 [Compound 1198]
activation at 1 µg/mL [1, 8]: 4%
activation at 3 µg/mL [1, 9]: 6%

O=C1COc2cc(OCCCN3CCCC(CO)C3)ccc21 (centres unmarked) [Compound 1214]
activation at 3 µg/mL [1, 9]: 4%

CC(=O)NC1CCN(CCCOc2ccc3c(c2)OCC3=O)CC1 [Compound 1302]
activation at 3 µg/mL [1, 9]: 5%
activation at 10 µg/mL [1, 4]: 13%
LD50 at 24 h [3]: > 300 mg/kg

CS(=O)(=O)Nc1ccc(C2CCN(CCCOc3ccc4c(c3)OCC4=O)CC2)cc1 [Compound 1304]
LD50 at 24 h [3]: > 300 mg/kg

O=C1CCc2cc(OCCC[N+]34CN5CN(CN(C5)C3)C4)ccc21 [Compound 1400]
LD50 at 24 h [3]: > 300 mg/kg

O=C1COc2cc(OCCC[n+]3ccc(-c4ccccc4)cc3)ccc21 [Compound 1404]
LD50 at 24 h [3]: > 300 mg/kg

CC(C)NCC(O)c1ccc(NS(C)(=O)=O)cc1 (centres unmarked) [Sotalol, reference compound]
change in vivo at 0.1 mg/kg [2, 5]: 1.7 ± 1.7%
change in vivo at 0.3 mg/kg [2, 6]: 6.7 ± 0.9%
change in vivo at 1 mg/kg [2, 7]: 8.7 ± 1.2%
change in vivo at 3 mg/kg [2, 10]: 15.5 ± 0.5%
